Test results from patent EP3560516A1, “COMBINATION THERAPY INCLUDING BETA-SITOSTEROL IN COMBINATION WITH AT LEAST ONE OF A BRAF INHIBITOR, A MEK INHIBITOR OR AN ERK INHIBITOR AND METHODS AND USE THEREOF” (Bergen Teknologioverføring AS, priority 2018, dated 2019).

Legend:
MDA-MB-231 = assay: MTS viability assay; format: cell-based, human
Text: (§1) • Figure 1: In vivo drug screening. (Figure left) Number of brain metastases at T1-weighted MRI with contrast (Student's t-test). (Figure right) Kaplan-Meier survival plot (Mantel-Cox log-rank test). There was no significant difference between vehicle- and memantine-treated mice. * P < 0.05; ** P < 0.01. All values are given as the mean ± s.e.m. • Figure 2: In vivo validation of β-sitosterol treatment-1. (Figure left) Number of brain metastases assessed by T1-weighted MRI with contrast (Student's t-test). The mean number of brain metastases in the vehicle group decreased slightly from seven to eight weeks as four mice with the greatest number of brain metastases were sacrificed between these observation points. (Figure right) Kaplan-Meier survival plot (Mantel-Cox log-rank test). The experiment was terminated at 100 days, and three mice in the β-sitosterol group were still alive and healthy. * P < 0.05; ** P < 0.01; **** P < 0.0001. All values are given as the mean ± s.e.m. • Figure 3: In vivo validation of β-sitosterol on H1_DL2 brain metastasis-2. (Figure left) Body weight from week zero to eight. […] (Figure right) Volume of brain metastases at MRI (T1-weighted with contrast). Total volume of brain metastases per animal was compared at group level. Student's t-test: n.s. P ≥ 0.05, * P < 0.05, ** P < 0.01, *** P < 0.001, **** P < 0.0001. All values are given as the mean ± s.e.m. • Figure 4: In vivo validation of β-sitosterol on PC14-PE6-Br2 brain metastases. Mice were injected intracardially with 5 x 10^5 PC14-PE6-Br2 cells. Test groups received daily i.p. injections of 0.1 mL vehicle (olive oil; n =4) or β-sitosterol 5 mg/kg (n = 6). (Figure left) Total volume of brain metastases at MRI at three weeks (T1-weighted with contrast). Total volume of brain metastases per animal was compared at group level. (Figure right) Kaplan-Meier survival plot (Mantel-Cox log-rank test: *** P < 0.001). All values are given as the mean ± s.e.m. • Figure 5: In vitro and in vivo effects on additional melanoma metastatic cell lines. (Figure left) Half maximal inhibitory concentration (IC50) values for β-sitosterol, PLX4720 and the combination thereof in Melmet 1, Melmet 5 and A375 cell lines (n = 3). (Figure right) Subcutaneous tumor volume ([width2 x length]/2) in mice injected with […] Melmet 5 cells. Mice were from 2 weeks onwards given daily i.p. injections of 0.1 mL vehicle (olive oil), 20 mg/kg β-sitosterol in olive oil, 25 mg/kg PLX4720 in 0.05% DMSO, or a combination of the two latter (n = 8 in each group). […] After 24 hours, the drugs were added to the wells, incubated for 72 hours, and then viability was assessed using an MTS assay. […] After 24 hours, the drugs were added to the wells, incubated for 72 hours, and then viability was assessed using an MTS assay. […]

H1 cells = assay: MTS viability assay; format: cell-based, human
Text: as §1

Melmet 5 cells = assay: subcutaneous Melmet 5 melanoma model; format: in vivo, mice; conditions: daily i.p. from 2 weeks: 20 mg/kg β-sitosterol, 25 mg/kg PLX4720, or both
Text: (§2) • Figure 1: In vivo drug screening. (Figure left) Number of brain metastases at T1-weighted MRI with contrast (Student's t-test). (Figure right) Kaplan-Meier survival plot (Mantel-Cox log-rank test). There was no significant difference between vehicle- and memantine-treated mice. * P < 0.05; ** P < 0.01. All values are given as the mean ± s.e.m. • Figure 2: In vivo validation of β-sitosterol treatment-1. (Figure left) Number of brain metastases assessed by T1-weighted MRI with contrast (Student's t-test). The mean number of brain metastases in the vehicle group decreased slightly from seven to eight weeks as four mice with the greatest number of brain metastases were sacrificed between these observation points. (Figure right) Kaplan-Meier survival plot (Mantel-Cox log-rank test). The experiment was terminated at 100 days, and three mice in the β-sitosterol group were still alive and healthy. * P < 0.05; ** P < 0.01; **** P < 0.0001. All values are given as the mean ± s.e.m. • Figure 3: In vivo validation of β-sitosterol on H1_DL2 brain metastasis-2. (Figure left) Body weight from week zero to eight. […] After 24 hours, the drugs were added to the wells, incubated for 72 hours, and then viability was assessed using an MTS assay. […] After 24 hours, the drugs were added to the wells, incubated for 72 hours, and then viability was assessed using an MTS assay. […]

H10 cells = assay: MTS viability assay; format: cell-based, human
Text: as §1

brain metastases = assay: in vivo drug screening in human-to-mouse brain metastasis model; conditions: compared with vehicle-treated mice; for survival: Kaplan-Meier
Text: (§3) • Figure 1: In vivo drug screening. (Figure left) Number of brain metastases at T1-weighted MRI with contrast (Student's t-test). (Figure right) Kaplan-Meier survival plot (Mantel-Cox log-rank test). There was no significant difference between vehicle- and memantine-treated mice. * P < 0.05; ** P < 0.01. All values are given as the mean ± s.e.m. • Figure 2: In vivo validation of β-sitosterol treatment-1. (Figure left) Number of brain metastases assessed by T1-weighted MRI with contrast (Student's t-test). The mean number of brain metastases in the vehicle group decreased slightly from seven to eight weeks as four mice with the greatest number of brain metastases were sacrificed between these observation points. (Figure right) Kaplan-Meier survival plot (Mantel-Cox log-rank test). The experiment was terminated at 100 days, and three mice in the β-sitosterol group were still alive and healthy. * P < 0.05; ** P < 0.01; **** P < 0.0001. All values are given as the mean ± s.e.m. • Figure 3: In vivo validation of β-sitosterol on H1_DL2 brain metastasis-2. (Figure left) Body weight from week zero to eight. […] (Figure right) Volume of brain metastases at MRI (T1-weighted with contrast). Total volume of brain metastases per animal was compared at group level. Student's t-test: n.s. P ≥ 0.05, * P < 0.05, ** P < 0.01, *** P < 0.001, **** P < 0.0001. All values are given as the mean ± s.e.m. • Figure 4: In vivo validation of β-sitosterol on PC14-PE6-Br2 brain metastases. Mice were injected intracardially with 5 x 10^5 PC14-PE6-Br2 cells. Test groups received daily i.p. injections of 0.1 mL vehicle (olive oil; n =4) or β-sitosterol 5 mg/kg (n = 6). (Figure left) Total volume of brain metastases at MRI at three weeks (T1-weighted with contrast). Total volume of brain metastases per animal was compared at group level. (Figure right) Kaplan-Meier survival plot (Mantel-Cox log-rank test: *** P < 0.001). All values are given as the mean ± s.e.m. • Figure 5: In vitro and in vivo effects on additional melanoma metastatic cell lines. (Figure left) Half maximal inhibitory concentration (IC50) values for β-sitosterol, PLX4720 and the combination thereof in Melmet 1, Melmet 5 and A375 cell lines (n = 3). (Figure right) Subcutaneous tumor volume ([width2 x length]/2) in mice injected with […] Melmet 5 cells. Mice were from 2 weeks onwards given daily i.p. injections of 0.1 mL vehicle (olive oil), 20 mg/kg β-sitosterol in olive oil, 25 mg/kg PLX4720 in 0.05% DMSO, or a combination of the two latter (n = 8 in each group). Representative images of tumors at 44 days are shown in the right panel. Student's t-test: * P < 0.05, ** P < 0.01. Values are given as the mean ± s.e.m. • Figure 6: In vitro effects of other BRAF and MEK inhibitors on human melanoma brain metastatic cell lines. 5000 cells (human BRAF mutated melanoma brain metastatic cell lines H1, H9 or H10) were plated in each well of a 96 well dish. After 24 hours, the drugs were added to the wells, incubated for 72 hours, and then viability was assessed using an MTS assay. […] 5000 cells were plated in each well of a 96 well dish. After 24 hours, the drugs were added to the wells, incubated for 72 hours, and then viability was assessed using an MTS assay.
We next investigated the efficacy of thiostrepton, memantine, and β-sitosterol using a highly standardized human-to-mouse brain metastasis model (Sundstrøm T et al, Cancer Res 2013;73:2445-2456). Drug treatment was commenced one week after tumor cell injections.

four melanoma cell lines = assay: monolayer viability and tumorsphere assays; format: cell-based; conditions: among top 10 candidate compounds from cMap
Text: Based on RNA sequencing of tumors in brains, adrenals, bone and ovaries from mice, we defined a 108-gene brain metastasis signature using a comparative work-flow of independent analyses of gene expression profiles from brain versus other organ metastases in a human BRAF-mutant melanoma xenograft model. […] For further studies, we concentrated on the top 10 candidate anti-brain metastatic compounds. To test the efficacy of the candidate compounds, we performed monolayer viability and tumorsphere assays in four melanoma cell lines (Daphu I et al, Int J Mol Sci 2014;15:8773.8794, Netland IA et al, J Neurooncol 2016;129:57-66). IC50 values were generally lower in tumorspheres than in monolayers, and there was substantial variation in cell line sensitivity.

[1] = tested on: PC14-PE6-Br2 brain metastases; assay: in vivo validation on lung adenocarcinoma brain metastases; design: species or system mice; conditions: 5 mg/kg daily i.p.
Text: • Figure 1: In vivo drug screening. (Figure left) Number of brain metastases at T1-weighted MRI with contrast (Student's t-test). (Figure right) Kaplan-Meier survival plot (Mantel-Cox log-rank test). There was no significant difference between vehicle- and memantine-treated mice. * P < 0.05; ** P < 0.01. All values are given as the mean ± s.e.m. • Figure 2: In vivo validation of β-sitosterol treatment-1. (Figure left) Number of brain metastases assessed by T1-weighted MRI with contrast (Student's t-test). The mean number of brain metastases in the vehicle group decreased slightly from seven to eight weeks as four mice with the greatest number of brain metastases were sacrificed between these observation points. (Figure right) Kaplan-Meier survival plot (Mantel-Cox log-rank test). The experiment was terminated at 100 days, and three mice in the β-sitosterol group were still alive and healthy. * P < 0.05; ** P < 0.01; **** P < 0.0001. All values are given as the mean ± s.e.m. • Figure 3: In vivo validation of β-sitosterol on H1_DL2 brain metastasis-2. (Figure left) Body weight from week zero to eight. […] After 24 hours, the drugs were added to the wells, incubated for 72 hours, and then viability was assessed using an MTS assay. […] After 24 hours, the drugs were added to the wells, incubated for 72 hours, and then viability was assessed using an MTS assay.

H1_DL2 brain metastasis = assay: in vivo validation of β-sitosterol treatment, treatment commenced before cell injection; design: species or system mice
Text: as §3
To validate our β-sitosterol treatment findings, we carried out a new and more extensive in vivo study in which treatment commenced before cell injection.

H9 cells = assay: MTS viability assay; format: cell-based; conditions: Homo sapiens, H9, 72 h, read-out: cell viability
Text: as §2

[2] = human, mda-mb-231 cells, 72 h, 35 µM
[3] = MRI, treatment commenced one week after tumor cell injections

CC(=O)Nc1cccc(-n2c(=O)n(C3CC3)c(=O)c3c(Nc4ccc(I)cc4F)n(C)c(=O)c(C)c32)c1 [trametinib, reference compound]
cell viability (MDA-MB-231; [2]): around 44% | cell viability (H1 cells; h1 cells, 72 h, 50 µM): ~60%

CCCS(=O)(=O)Nc1ccc(F)c(C(=O)c2c[nH]c3ncc(Cl)cc23)c1F [PLX4720, reference compound]
subcutaneous tumor growth (Melmet 5 cells): effective as monotherapies

CCCS(=O)(=O)Nc1ccc(F)c(C(=O)c2c[nH]c3ncc(-c4ccc(Cl)cc4)cc23)c1F [vemurafenib, reference compound]
cell viability (MDA-MB-231; [2]): ~73% | cell viability (H10 cells; h10 cells, 72 h, 50 µM): around 25%

CC12CC3CC(C)(C1)CC(N)(C3)C2 [memantine, reference compound]
survival (brain metastases): did not affect survival | reducing viability and tumorsphere growth (four melanoma cell lines): most potent

CC[C@H](CC[C@@H](C)[C@H]1CC[C@H]2[C@@H]3CC=C4C[C@@H](O)CC[C@]4(C)[C@H]3CC[C@]12C)C(C)C [β-sitosterol]
survival (brain metastases): survived significantly longer | number of brain metastases (brain metastases; [3]): significant reduction | volume of brain metastases (brain metastases; [3]): significant reduction | survival ([1]; Kaplan-Meier): prolonged survival | brain metastatic burden ([1]; MRI at three weeks, compared with vehicle): significant reduction | survival (H1_DL2 brain metastasis; Kaplan-Meier, compared with vehicle treatment, terminated at 100 days): significant survival benefit | volumes of brain metastases (H1_DL2 brain metastasis; MRI T1-weighted with contrast, compared with vehicle group): significantly lower volumes | number of brain metastases (H1_DL2 brain metastasis; T1-weighted MRI with contrast, compared with vehicle group): significantly fewer brain metastases | mice healthy and tumor-free (H1_DL2 brain metastasis; at 100 days, evaluated by brain MRI and histology): three out of nine | average body weight (H1_DL2 brain metastasis; at 100 days, three remaining mice, mean ± s.e.m.): 26.7 ± 0.6 grams | body weight (H1_DL2 brain metastasis; week zero to eight, vehicle-treated mice lost weight from four weeks onwards): maintained a stable body weight | cell viability (MDA-MB-231; 35uM beta-sitosterol, 0.5uM trametinib, 72 hours (Figure 7 left)): around 48% | cell viability (MDA-MB-231; 35uM beta-sitosterol, 5uM vemurafenib, 72 hours (Figure 7 right)): around 44% | subcutaneous tumor growth (Melmet 5 cells): effective as monotherapies | viability at 50 µM (H9 cells): 85% | cell viability (H1 cells; 50uM beta-sitosterol, 5nM trametinib, 72 hours, compared with untreated cells): around 85% | cell viability (H10 cells; 50uM beta-sitosterol, 5uM vemurafenib, 72 hours, compared to the untreated cells): around 80% | reducing viability and tumorsphere growth (four melanoma cell lines): most potent

C=C(NC(=O)C(=C)NC(=O)c1csc(C2=N[C@@H]3c4csc(n4)[C@H]4NC(=O)c5csc(n5)[C@H]([C@](C)(O)[C@@H](C)O)NC(=O)[C@H]5CSC(=N5)/C(=C/C)NC(=O)[C@H]([C@@H](C)O)NC(=O)c5csc(n5)[C@]3(CC2)NC(=O)[C@H](C)NC(=O)C(=C)NC(=O)[C@H](C)NC(=O)[C@H]([C@@H](C)CC)N[C@@H]2C=Cc3c([C@H](C)O)cc(nc3[C@H]2O)C(=O)O[C@@H]4C)n1)C(N)=O [thiostrepton, reference compound]
survival (brain metastases): significantly shorter lifespan | reducing viability and tumorsphere growth (four melanoma cell lines): most potent
